We go through six compounds from patent US5087620A, “Controlled dermal penetration enhancement using imidazoles” (Bristol-Myers Squibb Co., priority 1990, dated 1992).

Molecules are shown by their SMILES.

One data set deals with forearms of humans. The settings on record: general rule; depends on vehicle and concentration; cited from earlier work.
Data set [1] is described as follows: In vitro skin penetration study, excised human skin, Franz diffusion cells (Example 1A-1C). It counts as in vitro ADME.
Experimental: Normal excised human skin samples obtained from breast reduction were used. Appropriate size specimens were frozen on the microtome with carbon dioxide and sectioned to a layer around 200 micrometers thick and stored in normal saline at 5° C. The skin sections were mounted on 9 mm inside diameter flat-top Franz diffusion cells. The diffusional cross-sectional area of the skin was 0.636 cm^2. A 50 microliter sample of a test formulation was placed on the skin in the donor compartment and the receiver compartment was filled with about 5 ml of normal saline (with pH adjusted to 4 with citric acid) and was well stirred. Water at 37.4° C. was circulated throughout the water jacket of the diffusion cell. A 100 microliter sample was withdrawn from the receiver compartment at appropriate intervals and analyzed for drug content by HPLC. The receptor fluid was replenished with normal saline after each withdrawal. All the receptor fluid and replenished fluid were thoroughly degassed before use.
Data set [2] concerns volar forearms. In words: Vasoconstriction (skin blanching) assay, double-blind within subject study (Example 2). The class given is in vivo, human. The settings on record: inclusion of dermal penetration controlling amount of SNO3, PG and IPM. As for the experimental part:
(§1) Equal amounts of each coded test medication (approximately 10 mg) were applied to 2cm^2 sites on the volar forearms and left in place, unoccluded, for 8 hours. Vasoconstriction was assessed by grading the degree of blanching on a 4-point scale (none, mild, moderate, marked) at each test site at 4, 8, 10, 12 and 24 hours after application. Statistical analysis of the area under the curve (AUC) was conducted by ranking the AUC scores within each subject and performing an analysis of variance on the ranks (Friedman Test).

The test system of data set [3] is volar forearms. In words: Vasoconstriction assay of Examples 3, 4 and 5 versus DIPROSONE and KENALOG (Example 6). It counts as in vivo, human. As to the method:
as §1

On to `C[C@]12CCC(=O)C=C1CC[C@@H]1[C@@H]2[C@@H](O)C[C@@]2(C)[C@H]1CC[C@]2(O)C(=O)CO` [hydrocortisone], for which the “topical potency class (vasoconstriction assay)” value (from here on “topical potency class”) in the data set with forearms of humans is “low potency”.

`C[C@H]1C[C@H]2[C@@H]3CCC4=CC(=O)C=C[C@]4(C)[C@@]3(F)[C@@H](O)C[C@]2(C)[C@@]1(O)C(=O)CO` [betamethasone]: the “topical potency class” value in the data set with forearms of humans is reported as “high potency”.

`C[C@]12C=CC(=O)C=C1CC[C@@H]1[C@@H]2[C@@H](O)C[C@@]2(C)[C@H]1CC[C@]2(O)C(=O)CO` [prednisolone]: the “topical potency class” value with forearms of humans is given as “low potency”.

In the case of `CC1(C)O[C@@H]2C[C@H]3[C@@H]4CCC5=CC(=O)C=C[C@]5(C)[C@@]4(F)[C@@H](O)C[C@]3(C)[C@]2(C(=O)CO)O1` [TACA, triamcinolone acetonide], the “penetration through the entire skin thickness (extent)” value in data set [1] is reported as “only a small amount”. For the same compound, the “potency class of TACA with SNO3, PG and IPM” value was “high potency steroid” in the data set on volar forearms [2]; “high potency” in the data set with volar forearms [3] (inclusion of SNO3, PG and IPM). In the data set on volar forearms [3] (with SNO3, PG and IPM), the “TACA concentration needed for high potency in comparison to Kenalog cream (0.1% TACA)” value is reported as “three fold lower”. The “topical potency class” value with forearms of humans is listed as “mid-potency”.

Consider `C[C@H]1C[C@@H]2[C@H]([C@@H](O)C[C@@]3(C)[C@H]2CC[C@]3(O)C(=O)CO)[C@@]2(C)C=CC(=O)C=C12` [methylprednisolone], for which, in the data set with forearms of humans, the “topical potency class” value was “low potency”.

On to `C[C@H]1C[C@H]2[C@@H]3CCC4=CC(=O)C=C[C@]4(C)[C@@]3(F)[C@@H](O)C[C@]2(C)[C@@]1(O)C(=O)CCl` [clobetasol], for which, in the data set with forearms of humans, the “topical potency class” value was “ultra high potency”.
